Where no end group is shown, it is not given here.
Tests used:
BALB/c mice = settings: mouse, in vivo; cited from earlier work
mAb 21×27 = assay type: binding, mice
[1] = test system: polyclonal mouse anti-FMDV peptide serum; assay type: binding

Substance	immunogenicity when injected alone with an adjuvant (BALB/c mice)	recognition by monoclonal antibodies (ELISA, FIG. 5B) (mAb 21×27)	recognition by polyclonal antibodies (ELISA, FIG. 5A) [1]
Ac-GSGVRGDFGSLAPRVARQL [FMDV 141-159 peptide]	not immunogenic	–	–
Ac-CGSGVRGDFGSLAPRVARQL [free FMDV peptide]	–	recognized equally well	recognized equally well

Source: patent US20060199770A1, “Functionalized carbon nanotubes, a process for preparing the same and their use in medicinal chemistry” (priority 2003, published 2006)
